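Briefly, cells in 96-well plates were exposed to five compound concentrations for 48 h, and endpoints were estimated by linear interpolation. TGI: total growth inhibition.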
What was measured:
Test in all cases: inhibition of tumour cell growth, NCI panel, 48 h
ACHN renal = test system: ACHN renal
HT29 colon = test system: HT29 colon
HCC-2998 colon = test system: HCC-2998 colon
HOP-62 NSCLC = test system: HOP-62 NSCLC
M19-MEL melanoma = test system: M19-MEL melanoma
SW-620 colon = test system: SW-620 colon
UACC-257 melanoma = test system: UACC-257 melanoma
EKVX NSCLC = test system: EKVX NSCLC
HCT-116 colon = test system: HCT-116 colon
CCRF-CEM leukemia = test system: CCRF-CEM leukemia
DMS 114 small cell lung = test system: DMS 114 small cell lung

## CCCCCCCCCCCCOCCCOP(=O)([O-])OCC[N+](C)(C)C
ACHN renal
  TGI: > 80.2 µM
HT29 colon
  TGI: 61.7 µM
HCC-2998 colon
  TGI: 24.9 µM
HOP-62 NSCLC
  TGI: > 100 µM
M19-MEL melanoma
  TGI: > 100 µM
SW-620 colon
  TGI: > 100 µM
UACC-257 melanoma
  TGI: 98.9 µM
EKVX NSCLC
  TGI: > 100 µM
HCT-116 colon
  TGI: > 86.8 µM
CCRF-CEM leukemia
  TGI: 70.2 µM

## COc1ccc(OC)c(NS(=O)(=O)c2ccc3nc(C)n(NS(=O)(=O)c4cc(OC)ccc4OC)c(=O)c3c2)c1
ACHN renal
  TGI: > 100 µM
HT29 colon
  TGI: > 100 µM
HCC-2998 colon
  TGI: > 100 µM
HOP-62 NSCLC
  TGI: > 100 µM
SW-620 colon
  TGI: > 100 µM
UACC-257 melanoma
  TGI: > 100 µM
EKVX NSCLC
  TGI: > 100 µM
HCT-116 colon
  TGI: > 100 µM
CCRF-CEM leukemia
  TGI: > 100 µM

## CC(C)=CCC/C(C)=C/CC/C(C)=C/CC/C(=C/CC/C(C)=C\CC/C(C)=C/CC/C(C)=C/CC/C(C)=C/Cc1cc(O)ccc1O)CO
ACHN renal
  TGI: 34.9 µM
HT29 colon
  TGI: 18.9 µM
HCC-2998 colon
  TGI: > 42.1 µM
HOP-62 NSCLC
  TGI: 41.3 µM
SW-620 colon
  TGI: 42.5 µM
UACC-257 melanoma
  TGI: 11.8 µM
EKVX NSCLC
  TGI: 33.5 µM
HCT-116 colon
  TGI: > 31.9 µM
CCRF-CEM leukemia
  TGI: > 30.7 µM

## CN(C)CCCn1nc(N)c2nc3cc(Cl)ccc3nc21
ACHN renal
  TGI: > 100 µM
HT29 colon
  TGI: > 100 µM
HCC-2998 colon
  TGI: > 100 µM
HOP-62 NSCLC
  TGI: > 100 µM
SW-620 colon
  TGI: > 100 µM
UACC-257 melanoma
  TGI: 59.3 µM
EKVX NSCLC
  TGI: > 100 µM
HCT-116 colon
  TGI: > 100 µM
CCRF-CEM leukemia
  TGI: 96.5 µM

## CN(/N=C/c1ccnc2ccccc12)c1ccc(Cl)cc1[N+](=O)[O-]
ACHN renal
  TGI: > 100 µM
HT29 colon
  TGI: > 100 µM
HCC-2998 colon
  TGI: > 100 µM
HOP-62 NSCLC
  TGI: > 100 µM
SW-620 colon
  TGI: > 100 µM
UACC-257 melanoma
  TGI: > 100 µM
EKVX NSCLC
  TGI: > 100 µM
HCT-116 colon
  TGI: > 100 µM
CCRF-CEM leukemia
  TGI: > 100 µM

## CCOC(=O)C(Cc1cccn1C(=O)OC(C)(C)C)[N+](=O)[O-] (centres undefined)
ACHN renal
  TGI: 47.5 µM
HT29 colon
  TGI: 50.3 µM
HCC-2998 colon
  TGI: 42.4 µM
HOP-62 NSCLC
  TGI: 56.7 µM
SW-620 colon
  TGI: 59.2 µM
UACC-257 melanoma
  TGI: 59.3 µM
EKVX NSCLC
  TGI: > 100 µM
HCT-116 colon
  TGI: 51.3 µM
CCRF-CEM leukemia
  TGI: 35.4 µM

## CCOC(=O)CNc1nc(=O)c2c(=O)oc(Cl)cc2o1
ACHN renal
  TGI: 26.3 µM
HT29 colon
  TGI: 22.6 µM
HCC-2998 colon
  TGI: 29 µM
HOP-62 NSCLC
  TGI: 53.3 µM
SW-620 colon
  TGI: 85.6 µM
UACC-257 melanoma
  TGI: 38.4 µM
EKVX NSCLC
  TGI: 29.6 µM
HCT-116 colon
  TGI: 24.4 µM
CCRF-CEM leukemia
  TGI: 68.3 µM

## CCOC(=O)CC1(c2cccc3ccccc23)OC(=O)c2ccccc21 (centres undefined)
ACHN renal
  TGI: > 100 µM
HT29 colon
  TGI: > 100 µM
HCC-2998 colon
  TGI: > 100 µM
M19-MEL melanoma
  TGI: > 100 µM
SW-620 colon
  TGI: > 100 µM
DMS 114 small cell lung
  TGI: > 100 µM
UACC-257 melanoma
  TGI: > 100 µM
EKVX NSCLC
  TGI: > 100 µM
CCRF-CEM leukemia
  TGI: > 100 µM

## Cc1cn([C@@H]2O[C@H](CO[Si](C)(C)C(C)(C)C)[C@]3(O[C@H]3C(=O)NN)[C@H]2O[Si](C)(C)C(C)(C)C)c(=O)[nH]c1=O
ACHN renal
  TGI: 15.6 µM
HT29 colon
  TGI: 7.79 µM
HCC-2998 colon
  TGI: 7.78 µM
HOP-62 NSCLC
  TGI: 33.3 µM
SW-620 colon
  TGI: 20 µM
UACC-257 melanoma
  TGI: 27.6 µM
EKVX NSCLC
  TGI: 22.4 µM
HCT-116 colon
  TGI: 13.3 µM
CCRF-CEM leukemia
  TGI: 5.43 µM

## CC1=NN(c2nc(N)nc(CC#N)n2)C(C)(C)C1
ACHN renal
  TGI: > 100 µM
HT29 colon
  TGI: > 100 µM
HCC-2998 colon
  TGI: > 100 µM
HOP-62 NSCLC
  TGI: > 100 µM
SW-620 colon
  TGI: > 100 µM
UACC-257 melanoma
  TGI: > 100 µM
EKVX NSCLC
  TGI: > 100 µM
HCT-116 colon
  TGI: > 100 µM
CCRF-CEM leukemia
  TGI: > 100 µM

## O=CC12C3CCC1C2C(=O)C3 (centres undefined)
ACHN renal
  TGI: > 100 µM
HT29 colon
  TGI: > 100 µM
HCC-2998 colon
  TGI: > 100 µM
HOP-62 NSCLC
  TGI: > 100 µM
SW-620 colon
  TGI: > 100 µM
UACC-257 melanoma
  TGI: > 100 µM
EKVX NSCLC
  TGI: > 100 µM
HCT-116 colon
  TGI: > 100 µM
CCRF-CEM leukemia
  TGI: > 100 µM

## CC1(C)C2CC(=O)C1(C)C(OCc1ccccc1)C2 (centres undefined)
ACHN renal
  TGI: > 100 µM
HT29 colon
  TGI: > 100 µM
HCC-2998 colon
  TGI: > 100 µM
HOP-62 NSCLC
  TGI: > 100 µM
SW-620 colon
  TGI: 87.3 µM
UACC-257 melanoma
  TGI: > 100 µM
EKVX NSCLC
  TGI: > 100 µM
HCT-116 colon
  TGI: 66.1 µM
CCRF-CEM leukemia
  TGI: 92.8 µM

## C=C1C(=O)O[C@@H]2C[C@]3(C)CC[C@]4(C)[C@H](CC[C@@H]5[C@@]6(C)CCC(=O)C(C)(C)[C@@H]6CC[C@]54C)[C@H]3[C@H]12
ACHN renal
  TGI: 24.2 µM
HT29 colon
  TGI: > 56.7 µM
HCC-2998 colon
  TGI: 33.7 µM
HOP-62 NSCLC
  TGI: 49.2 µM
SW-620 colon
  TGI: 55.4 µM
UACC-257 melanoma
  TGI: 32.8 µM
EKVX NSCLC
  TGI: 38 µM
HCT-116 colon
  TGI: 31.3 µM
CCRF-CEM leukemia
  TGI: 6.14 µM

## c1c[nH]c(C23C4C5C6C4C2C6C53)n1 (centres undefined)
ACHN renal
  TGI: > 100 µM
HT29 colon
  TGI: > 100 µM
HCC-2998 colon
  TGI: > 100 µM
HOP-62 NSCLC
  TGI: > 100 µM
SW-620 colon
  TGI: > 100 µM
UACC-257 melanoma
  TGI: > 100 µM
EKVX NSCLC
  TGI: > 100 µM
HCT-116 colon
  TGI: > 100 µM
CCRF-CEM leukemia
  TGI: > 100 µM

## CC(C)C1=CC23CCC4C(C)(C(=O)O)CCCC4(C)C2CC1C1C(=O)N(c2ccccc2)C(=O)C13 (centres undefined)
ACHN renal
  TGI: > 100 µM
HT29 colon
  TGI: > 100 µM
HOP-62 NSCLC
  TGI: > 100 µM
M19-MEL melanoma
  TGI: > 100 µM
SW-620 colon
  TGI: > 100 µM
DMS 114 small cell lung
  TGI: > 100 µM
UACC-257 melanoma
  TGI: 84.2 µM
HCT-116 colon
  TGI: > 100 µM
CCRF-CEM leukemia
  TGI: > 100 µM

## O=C1OC(=O)c2cc(S(=O)(=O)c3ccc4c(c3)C(=O)OC4=O)ccc21
ACHN renal
  TGI: > 100 µM
HT29 colon
  TGI: > 100 µM
HCC-2998 colon
  TGI: > 100 µM
HOP-62 NSCLC
  TGI: > 100 µM
SW-620 colon
  TGI: > 100 µM
UACC-257 melanoma
  TGI: > 100 µM
EKVX NSCLC
  TGI: > 100 µM
HCT-116 colon
  TGI: > 100 µM
CCRF-CEM leukemia
  TGI: > 100 µM

## O=C1c2cc(Cl)ccc2NC(=NCCCl)C2CSCN12 (centres undefined)
ACHN renal
  TGI: > 100 µM
HT29 colon
  TGI: > 100 µM
HCC-2998 colon
  TGI: > 100 µM
HOP-62 NSCLC
  TGI: > 100 µM
SW-620 colon
  TGI: > 100 µM
UACC-257 melanoma
  TGI: > 100 µM
EKVX NSCLC
  TGI: > 100 µM
HCT-116 colon
  TGI: > 100 µM
CCRF-CEM leukemia
  TGI: > 100 µM

Source: PubChem BioAssay (NCI)
